Results taken from BigSolDB 2.1.

CN1CCN(C(=O)O[C@H]2c3nccnc3C(=O)N2c2ccc(Cl)cn2)CC1
solubility (mole fraction)
Conditions	288.15 K	293.15 K	298.15 K	303.15 K	308.15 K	313.15 K	318.15 K	323.15 K	328.15 K
in acetone	0.0013	0.00153	0.0019	0.00229	0.00269	0.00318	0.0037	–	–
in ethanol	0.00023	0.000282	0.00036	0.000431	0.000526	0.000672	0.000851	0.000996	0.0012
in isopropyl acetate	0.000682	0.000796	0.000964	0.0012	0.0014	0.00163	0.00182	0.00203	0.00226
in methyl acetate	0.00187	0.00217	0.0025	0.00303	0.00356	0.00414	0.00484	–	–
in n-propanol	0.00013	0.000172	0.000215	0.000292	0.000382	0.000493	0.00059	0.00079	0.00101
in n-propyl acetate	0.000851	0.00102	0.00124	0.00153	0.00183	0.00208	0.00239	0.0027	0.00303
